Structures can show the parent of a compound that is named as a salt.
What was measured:
[1] = test system: Staphylococcus aureus (Oxford H); assay: MIC, microtitre method (Example 30); conditions: read-out: Minimum Inhibitory Concentration
Experimental: (§1) The cultures were incubated overnight and the points of bacterial growth recorded next morning by observing the turbidity of the culture.

Klebsiella aerogenes = assay: MIC, microtitre method (Example 30); conditions: read-out: Minimum Inhibitory Concentration
Experimental: as §1

Salmonella typhimurium = assay: MIC, microtitre method (Example 30); conditions: Salmonella enterica, read-out: Minimum Inhibitory Concentration
Experimental: as §1

[2] = test system: Staphylococcus aureus (Russell); assay: MIC / synergism, microtitre method (Example 42); format: cell-based; conditions: Staphylococcus aureus; agent alone (Tables 5, 6); inoculum final dilution 0.5 ×10^-2, 37° C overnight; read-out: Minimum Inhibitory Concentration
Streptococcus faecalis = assay: MIC, microtitre method (Example 30); conditions: Enterococcus faecalis, read-out: Minimum Inhibitory Concentration
Experimental: as §1

[3] = test system: Escherichia coli NCTC 10418; assay: MIC, microtitre method (Example 30); conditions: NCTC10418, read-out: Minimum Inhibitory Concentration
Experimental: as §1

Bacillus subtilis A = assay: MIC, method of Example 30 with 1/100 dilution of overnight broth (Example 46); conditions: Bacillus subtilis
Experimental: as §1

Proteus vulgaris W090 = assay: MIC, microtitre method (Example 30); conditions: W090, read-out: Minimum Inhibitory Concentration
Experimental: as §1

Shigella sonnei = assay: MIC, microtitre method (Example 30); conditions: read-out: Minimum Inhibitory Concentration
Experimental: as §1

Klebsiella sp 62 = assay: MIC / synergism, microtitre method (Example 42); format: cell-based; conditions: agent alone, inoculum final dilution 0.5 ×10^-2, 37° C overnight, read-out: Minimum Inhibitory Concentration
Enterobacter cloacae [4] = assay: MIC / synergism, microtitre method (Example 42); format: cell-based; conditions: agent alone, inoculum final dilution 0.5 ×10^-2, 37° C overnight, read-out: Minimum Inhibitory Concentration
Staph. aureus Oxford = assay: MIC, method of Example 30 with 1/100 dilution of overnight broth (Example 46); conditions: Staphylococcus aureus
Experimental: as §1

Staphylococcus aureus = assay: MIC / synergism, microtitre method (Example 42); format: cell-based; conditions: Staphylococcus aureus; agent alone (Tables 5, 6); inoculum final dilution 0.5 ×10^-2, 37° C overnight; read-out: Minimum Inhibitory Concentration
Pseudomonas aeruginosa A = assay: MIC, microtitre method (Example 30); conditions: read-out: Minimum Inhibitory Concentration
Experimental: as §1

[5] = test system: Enterobacter aerogenes T 624; assay: MIC, microtitre method (Example 30); conditions: Klebsiella aerogenes, T624, read-out: Minimum Inhibitory Concentration
Experimental: as §1

Serratia marcescens [6] = assay: MIC / synergism, microtitre method (Example 42); format: cell-based; conditions: agent alone, inoculum final dilution 0.5 ×10^-2, 37° C overnight, read-out: Minimum Inhibitory Concentration
[7] = Blood and tissue levels of clavulanic acid in female mice; format: in vivo
Providentia stuartii = assay: MIC, microtitre method (Example 30); conditions: read-out: Minimum Inhibitory Concentration
Experimental: as §1

Bacillus subtilis = assay: MIC, microtitre method (Example 30); conditions: read-out: Minimum Inhibitory Concentration
Experimental: as §1

Proteus mirabilis 899 = assay: microbe, parasite or virus in culture; format: cell-based; conditions: Proteus mirabilis, 899, read-out: Minimum Inhibitory Concentration
Staph. aureus Russell = assay: MIC, method of Example 30 with 1/100 dilution of overnight broth (Example 46); conditions: Staphylococcus aureus
Experimental: as §1

Proteus mirabilis C977 = assay: MIC, microtitre method (Example 30); conditions: C977, read-out: Minimum Inhibitory Concentration
Experimental: as §1

[8] = test system: Staphylococcus aureus (Russell); assay: MIC, microtitre method (Example 30); conditions: read-out: Minimum Inhibitory Concentration
Experimental: as §1

Escherichia coli B 11 = assay: MIC / synergism, microtitre method (Example 42); format: cell-based; conditions: B11, agent alone, inoculum final dilution 0.5 ×10^-2, 37° C overnight, read-out: Minimum Inhibitory Concentration
Serratia marcescens [9] = assay: MIC, microtitre method (Example 30); conditions: read-out: Minimum Inhibitory Concentration
Experimental: as §1

Enterobacter cloacae [10] = assay: MIC, microtitre method (Example 30); conditions: read-out: Minimum Inhibitory Concentration
Experimental: as §1

Acinetobacter anitratus = assay: MIC, microtitre method (Example 30); conditions: Acinetobacter calcoaceticus, read-out: Minimum Inhibitory Concentration
Experimental: as §1

[11] = test system: Escherichia coli NCTC 10481; assay: MIC / synergism, microtitre method (Example 42); format: cell-based; conditions: NCTC10481, agent alone, inoculum final dilution 0.5 ×10^-2, 37° C overnight, read-out: Minimum Inhibitory Concentration
Klebsiella oxytocum = assay: MIC, microtitre method (Example 30); conditions: read-out: Minimum Inhibitory Concentration
Experimental: as §1

Escherchia coli 10418 = assay: MIC, method of Example 30 with 1/100 dilution of overnight broth (Example 46)
Experimental: as §1

[12] = test system: Streptococcus pyogenes CN 10; assay: MIC, microtitre method (Example 30); conditions: CN10, read-out: Minimum Inhibitory Concentration
Experimental: as §1

For `O=C(O)[C@H]1/C(=C/CO)O[C@@H]2CC(=O)N21` [clavulanic acid sodium salt, 3-(β-hydroxyethylidine)-7-oxo-4-oxa-1-azabicyclo [3,2,0]heptane-2-carboxylic acid sodium salt], the MIC [1] was 7.5 µg/mL, the MIC (Klebsiella aerogenes) was 31 to 62 µg/mL and the MIC (Salmonella typhimurium) was 31 µg/mL. It also gave an MIC [2] of 15 µg/mL, an MIC (Streptococcus faecalis) of over 500 µg/mL and an MIC [3] of 31 µg/mL. The MIC (Bacillus subtilis A) was 62 µg/mL, the MIC (Proteus vulgaris W090) was 31 µg/mL and the MIC (Shigella sonnei) was 62 µg/mL. For the same compound, the MIC (Klebsiella sp 62) was 31 µg/mL, the MIC (Enterobacter cloacae [4]) was 62 µg/mL and the MIC (Staph. aureus Oxford) was 15 µg/mL. It also gave an MIC (Staphylococcus aureus) of 62 µg/mL, an MIC (Pseudomonas aeruginosa A) of 500 µg/mL and an MIC [5] of 31 µg/mL. The MIC (Serratia marcescens [6]) was 125 µg/mL, the “levels of clavulanic acid after oral administration” value ([7]; oral administration of 100 mg/kg) was “useful levels of clavulanic acid can be obtained” and the “blood and tissue levels of clavulanic acid” value ([7]; subcutaneous administration of 100 mg/kg) was over 5 µg/mL. The MIC (Providentia stuartii) was 125 µg/mL, the MIC (Bacillus subtilis) was 62 µg/mL and the MIC (Proteus mirabilis 899) was over 500 µg/mL. The MIC (Staph. aureus Russell) was 15 µg/mL, the MIC (Proteus mirabilis C977) was 62 µg/mL and the MIC [8] was 7.5 µg/mL. It also gave an MIC (Escherichia coli B 11) of 62 µg/mL, an MIC (Serratia marcescens [9]) of 125 µg/mL and an MIC (Enterobacter cloacae [10]) of 62 µg/mL. The MIC (Acinetobacter anitratus) was 125 µg/mL, the MIC [11] was 31 µg/mL and the MIC (Klebsiella oxytocum) was 62 µg/mL. The MIC (Escherchia coli 10418) was 125 µg/mL and the MIC [12] was 125 µg/mL.
